Assay results from PMC12785511, “Integrative Profiling for BBB Permeability Using Capillary Electrochromatography, Experimental Physicochemical Parameters, and Ensemble Machine Learning” (International Journal of Molecular Sciences, 2025).
Like-named read-outs stand apart in the source and are kept apart here.

Experiments:
[1] = open-tubular capillary electrochromatography (CEC), permeability k′ parameter; type: in vitro ADME; conditions: pH 7.4 HEPES buffer 40 mM, migration times in coated and uncoated capillary, mean ± SD of three independent experiments
Method: The separation HEPES buffer, POPC/PS liposomes (80:20 mol% ratio; large unilamellar vesicles type; LUV), and test samples were prepared according to the protocol described earlier [45]. […] To complete the coating procedure, the capillary was left to stand filled with the liposome solution for 15 min.
Since the reference drugs tested in this study are compounds ionized at pH 7.4, their migration times determined in the uncoated and coated capillary variants were used in the k′ permeability parameter calculations. At first, the experiments were conducted in the liposome-untreated capillary. Next, after coating the capillary with the inner liposomal layer, the migration times of analytes were evaluated once again in the coated one. […] The pH 7.4 HEPES buffer (40 mM) was used as the background electrolyte solution in all CEC experiments.
The CEC permeability k′ parameter was calculated for each reference drug based on its experimentally determined migration times in the uncoated and coated capillary variants using Equation (2) [56]:(2) k^′=tR(1/tEOF+ 1/tR^′− 1/tEOF^′)−1 where tR and tEOF are the migration times of the analyte and EOF marker in the coated capillary, respectively, and tR′ and tEOF′ are analogical migration times in the uncoated capillary.

physchem [2] = test: physchem
Method: (§1) Using the Sirius T3 device, the physicochemical properties of the reference drugs were determined by automated potentiometric titrations. The compounds’ acidity was measured by determining their pKa parameters. […] The obtained psKa values were next extrapolated to the 0% content of methanol (pure ISA water) using the Yasuda–Shedlovsky extrapolation plots. The lipophilicity of the research compounds (log P parameters) was measured by the automated potentiometric method as well, based on the previously obtained compounds’ pKa values. The aqueous pH-metric titrations were carried out in the presence of n-octanol—an immiscible water partition solvent. […] The log P parameters were determined based on the differences between the apparent poKa and aqueous pKa values in three independent titrations conducted with diverse volume ratios of the aqueous and n-octanol phases. Log D7.4 values were calculated automatically by the Sirius T3 Refine software (version 2.0.0.0) based on the obtained log P and pKa values.

physchem [3] = conditions: for logD: pH 7.4
Method: as §1

[4] = cited from earlier work
[5] = Sirius T3 automated potentiometric (pH-metric) titrations, pKa
Method: as §1

[6] = Sirius T3 automated potentiometric titrations with n-octanol, log P / log D; conditions: for logP / logD: n-octanol/water
Method: as §1

[7] = experimental in vivo measurements from rats, data retrieved from literature
[8] = ionic strength adjusted (ISA) water ([…] KCl), pKa ± SD, […] ISA water or Yasuda–Shedlovsky extrapolation from methanol cosolvent, value used for regression

Compound | k′ ± SD (CEC) [1] | logD (physchem [3]) | Log BB ([4]; rat, in vivo) | Log BB [4, 7] | further results
CCCN(CCC)CCc1cccc2c1CC(=O)N2 [ropinirole] | −0.01252 ± 0.00126 | – | – | – | pKa (physchem [2]): 9.7 ± 0.05
COc1ccc2c3c1O[C@H]1C[C@@H](O)C=C[C@@]31CCN(C)C2 [galanthamine] | – | 0.18 | 0.00 | – | logP (physchem [3]): 1.15
CN(C)C(=O)C(CCN1CCC(O)(c2ccc(Cl)cc2)CC1)(c1ccccc1)c1ccccc1 [loperamide] | 0.0147 ± 0.00102 | 3.21 | – | 0.70 | –
CCC1(C2=CCCCC2)C(=O)NC(=O)NC1=O [cyclobarbital] | 0.00186 ± 0.00088 | 1.16 | −0.30 | – | –
S=C(NC1CCCCC1)N1CCC(c2cnc[nH]2)CC1 [thioperamide] | 0.01849 ± 0.00363 | 2.27 | – | −0.16 | –
CCN(C)C(=O)Oc1cccc([C@H](C)N(C)C)c1 [rivastigmine] | −0.00018 ± 0.00009 | 0.66 | – | – | –
COc1ccc2c3c1O[C@H]1[C@@H](O)C=C[C@H]4[C@@H](C2)N(C)CC[C@@]341 [codeine] | −0.01188 ± 0.00888 | 0.26 | 0.55 | – | logP (physchem [3]): 1.14 ± 0.01
O=C(O)CCCc1ccc(N(CCCl)CCCl)cc1 [chlorambucil] | 0.00397 ± 0.00087 | 1.07 | – | −1.70 | logP (physchem [3]): 3.71 ± 0.02; pKa [5]: 4.72 ± 0.04
CCC1(c2ccccc2)C(=O)NC(=O)NC1=O [phenobarbital] | −0.01824 ± 0.00855 | 0.98 | −0.12 | – | –
CNC(=O)Oc1ccc2c(c1)[C@]1(C)CCN(C)[C@@H]1N2C [physostigmine] | 0.01268 ± 0.00087 | – | 0.08 | – | pKa (physchem [2]): 8.24 ± 0.04
CN1CCN2c3ccccc3Cc3ccccc3C2C1 (stereo not shown) [mianserin] | −0.02148 ± 0.00155 | – | – | 0.99 | logP [6]: 3.74 ± 0.01; logD ([6]; pH 7.4): 3.5; pKa [5, 8]: 7.25 ± 0.03
CC(C)(C)NCC(O)c1ccc(O)c(CO)c1 (stereo not shown) [salbutamol] | −0.0103 ± 0.00502 | – | – | −1.03 | logP [6]: 0.3 ± 0.04; Log D7.4 ([6]; pH 7.4, calculated based on the experimentally obtained pKa and log P data): −1.90; pKa [5, 8]: 9.6 ± 0.01
CN(C)CCC=C1c2ccccc2CCc2ccccc21 [amitriptyline] | 0.00004 ± 0.00001 | – | – | 1.30 | logP [6]: 4.68 ± 0.02; logD ([6]; pH 7.4): 2.84; pKa [5, 8]: 9.23 ± 0.08
